From patent US8865672B2, “Prevention of tissue ischemia and related methods” (The United States of America, as represented by the …, priority 2006, dated 2014)
Square brackets hold non-standard residues; d marks the D form. Ends that are not written are not given here.

What was measured:
HAVSMC [1] = test: 3D collagen matrix contraction assay, human aortic VSMC; type: cell-based; details: HAVSMC, 10% FCS or 100 nM S1P
Protocol: Type I collagen gel (3 mg/ml) with 10×M199 (Gibco, Grand Island, N.Y.) at a 10:1 ratio of collagen to medium was prepared, pH balanced with NaOH and seeded with either HAVSMC or VSMC harvested from aortic segments from C57B16 WT or TSP1 null mice (50,000 cells in 75 μl of gel/well) and aliquoted to 96-well plates (Nunc, Denmark). Plates were incubated for 12 h 37° C. and 5% CO2 allowing for gelation and cell spreading, gently released from the well walls and incubated in serum and additive deficient growth medium with 0.1% BSA in the presence of the indicated treatment agents for 10 h. Contraction was determined by measuring the diameter in perpendicular planes (x, y) of each disk, an average obtained and surface area calculated as (d/2)^2π. Experiments were performed in triplicate. Results represent the mean±SD of at least three separate experiments.
Human aortic VSMC were plated onto 12-well culture plates (Nunc) at a density of 5×10^4 cells/well in SM-GM+2% FCS and cultured until approximately 90% confluent. A translation-blocking antisense morpholino oligonucleotide complementary to human and murine CD47 ([…]; SEQ ID NO: 21) and a five-base mismatch control (CGTgACAGcCAcGACCgACTGCgCA; SEQ ID NO: 22) were obtained from GeneTools (Philomath, Oreg.). Cultured cells were treated as per the manufacturer's recommendation with morpholinos (10 μM) and utilized within 48 hours of treatment.

HAVSMC [2] = test: Actin cytoskeleton staining (F-actin) in HAVSMC; type: cell-based, human
Protocol: VSMC were grown on glass well slides (Lab-Tek, Nunc) under standard growth conditions. Cells were incubated at 37° C. for 1 hour in serum and additive deficient growth medium and the indicated treatment agents, after which the media was removed and the cells were fixed in 4% paraformaldehyde in PBS (pH 7.4, Fisher Scientific) for 15 minutes at room temperature. After washing with DPBS, cells were permeabilized for 5 minutes in 0.1% Triton X-100 in PBS and then blocked in M199E/2% BSA for 30 min at room temperature. Cells were stained for F-actin with 1 unit/200 μl medium/1% BSA of Oregon Green 488 phalloidin (Molecular Probes). Slides were imaged using an Olympus IX70 microscope and photographed at constant exposure and gain. In other experiments VSMC were plated on 24-well culture plates (Nunc, Denmark) in smooth muscle growth medium (50,000 cells/well) and weaned from serum and additives over 24 hours. Cell treatment was performed with the indicated agents in plain medium with 0.1% BSA for 5 minutes. Wells were processed as described above. Following staining with phalloidin cells were incubated in methanol for 30 minutes, samples aliquoted to 96-well black plates and fluorescence read at 520 nm (excitation 495 nm). Data was normalized to total protein. Results represent the mean±SD of at least three separate experiments.

human platelets [3] = test: Human platelet adhesion assay; type: cell-based; details: fibrinogen or collagen, DEA/NO 10 μM
Protocol: Bacteriological Petri dishes (35×10 mm, Becton Dickinson Labware) were pre-coated with collagen (3 μg/ml) or fibrinogen (15 μg/mL) overnight. Following aspiration of non-adherent matrix, dishes were blocked with 1% BSA. Fresh platelets were washed and suspended in Tyrode's buffer and allowed to adhere for 30 minutes. Plates were washed with PBS, fixed with 0.5% glutaraldehyde and stained with 0.02% toluidine blue. Adherent platelets were counted microscopically. In some experiments platelets were pre-incubated with the Rap1 geranylgeranyltransferase inhibitor GGTI-298 (10 μM) for 30 minutes prior to initiating adhesion.

human platelets [4] = test: cGMP in human platelets; type: cell-based; details: washed human platelets in Tyrode's buffer
Protocol: Fresh human platelets at 2×10^5 platelets/μl in Tyrode's buffer or PRP were pre-incubated with the indicated agents for 15 minutes and then challenged with DEA/NO for the indicated time interval at room temperature and total cGMP determined via immunoassay (Amersham, GE Healthcare, Buckinghamshire, UK). Murine WT and TSP1-null platelets were treated with DEA/NO and cGMP flux measured.

[5] = tested on: murine ASMC (WT, CD36 null, CD47 null); test: Intracellular cGMP in murine ASMC; type: cell-based, mouse
Protocol: Murine ASMC were obtained from aortic segments harvested sterilely from C57B1/6 CD47 null or CD36 null mice as described (Ray et al., Methods Cell Sci 23:185-188, 2001) and cultured in SM-GM (Cambrex)+20% FCS. In the case of CD36 null cells, culture flasks were pre-coated with 1% gelatin prior to cell plating. Wild type C57B1/6 ASMC cultures were prepared as previously described (Isenberg et al., Matrix Biol 24:110-123, 2005). Cell culture purity was determined by immunohistochemistry staining for α-smooth muscle actin. Cells were used within passage 1 to 4 to minimize overgrowth of other cell types.
HUVEC (10^4 cells/well) grown overnight in 96-well culture plates containing full growth medium with 2% FCS and weaned in growth medium without additives and 1% FCS over 24 hrs before treatment with NO donors and other agents in SM-GM without additives+0.1% BSA. Intracellular cGMP levels were determined according to the manufacturer's instructions using an enzyme immunoassay kit (Amersham Biosciences). In other experiments ASMC from wild type and CD36 or CD47 null mice were plated onto 96-well culture plates and incubated overnight in full growth medium. They were then weaned off serum as described to SM-GM+0.1% BSA and treated with NO donor and other agents as indicated. Intracellular cyclic nucleotides were determined via immunoassay.

HUVEC = test: NO-stimulated HUVEC adhesion on type I collagen; type: cell-based, human; details: DEA/NO 10 μM, 1 h
Protocol: Cell adhesion was carried out in 96-well culture plates. After pre-coating wells with type I collagen (3 μg/ml in DPBS) harvested cells were plated at a density of 1×10^4 cells/well in medium plus 0.1% BSA and treatment agents and incubated in 5% CO2 for 1 h. Wells were washed with PBS and cells fixed with 1% glutaraldehyde for 10 min., washed and stained with 1% crystal violet for 20 min. Excess stain was rinsed away, adherent cells treated with 10% acetic acid, and plates read at 570 nm.

human platelets [6] = test: Thrombin-induced human platelet aggregation; type: cell-based; details: high shear, thrombin 0.2 U/ml, DEA/NO 10 μM
Protocol: Platelets were pelleted from platelet-rich plasma (PRP) by centrifugation for 10 minutes at 200 g. They were then washed with acid citrate dextrose (ACD) (85 mM citric acid, 65 mM sodium citrate, 100 mM glucose, pH 5.1) at a ratio of 1:7 at room temperature. After pelleting the platelets again and removing the supernatant, the platelets were resuspended in 5 mL of Tyrode's buffer (137 mM NaCl, 3 mM KCl, 12 mM NaHCO3, 0.3 mM NaHPO4, 2 mM CaCl2, 1 mM MgCl2, 5.5 mM glucose, 5 mM HEPES, 3.5 mg/mL BSA, pH 7.4). The final platelet number was adjusted to […] in 500 μl/cuvette of Tyrode's buffer.
Aggregation of human platelets under high shear conditions was assessed using a standard optical aggregometer (Lumi-Dual Aggregometer, Chrono-Log Corp., Havertown, Pa.) at 37° C. and 1200 rpm in a volume of 500 μl buffer with a final platelet concentration of 2×10^5 platelets/μl over a 5 minute interval. Pre-incubation with TSP1 and TSP1-based agents was for 15 minutes prior to addition of thrombin and/or the rapidly releasing nitric oxide donor DEA/NO. In some experiments platelets were pre-incubated with the Rap1 inhibitor GGTI-298 (10 μM) (Calbiochem, La Jolla, Calif.) for 30 minutes prior to initiating aggregation. In other high shear aggregation experiments murine platelets were prepared as above with the following modifications. Mouse blood was collected by retro-orbital bleeding of anesthetized mice using heparinized tubes. PRP was prepared and then diluted with 4 vol. of Tyrodes containing 5 mM EDTA to prevent activation. After collection by centrifugation, platelets were resuspended in 2× initial PRP volume and held at room temperature for less than 1 hour before use. Aggregation conditions consisted of 250 μL of washed platelets stirred at 1200 rpm in a Chronolog Optical aggregometer at 37° C. DEA/NO (10 μM) was added 30 seconds prior to activation and 8-BrcGMP added 15 min prior to activation with 0.2 U/ml human thrombin. Data was collected using Chronolog “Aggrolink” software. Platelet aggregation under static conditions was assessed using a spectrophotometer (Beckman DU 640, Beckman Coulter, Fullerton, Calif.) and determined as a change in absorbance at 400 nm with continuous observation over a five minute interval. The cuvette was inverted once every 60 seconds. Pre-incubation with TSP1 and TSP1-based agents was for 15 minutes prior to addition of thrombin and/or DEA/NO to minimize the formation of thrombin-serpinthrombospondin complexes (Chang & Detwiler, Arch Biochem Biophys. 299:100-104, 1992), which interfere with thrombin-platelet interactions.
Fresh human platelets were suspended in Tyrode's buffer and under low shear conditions thrombin-stimulated aggregation measured as described. Platelets were then treated with peptide C6d (1 μM)±NO (10 μM DEA/NO) and thrombin and aggregation measure.

With `NCCN(CCN)/[N+]([O-])=N/O` [DETA/NO, diethyltriamine NONOate] the collagen gel contraction (HAVSMC [1]) was “inhibited gel contraction by both agonists”.

With `O=c1onc2cnc3ccccc3n12` [ODQ, Oxadiazole-[4,3-a]quinoxalin-1-one, reference compound] the NO-induced actin disassembly (HAVSMC [2]; DEA/NO 10 μM) was “inhibition of actin disassembly by NO” and the “decrease in platelet adhesion in response to exogenous NO” value (human platelets [3]) was “prevented the decrease in platelet adhesion”.

`CCCCCCCCCCCCC/C=C/[C@@H](O)[C@@H](N)COP(=O)(O)O` [S1P, sphingosine-1-phosphate, reference compound] was tested, and the collagen gel contraction (HAVSMC [1]) was “significant contraction” and the F-actin levels (HAVSMC [2]; agent alone (TSP1 2.2 nM, S1P 100 nM)) was “increased F-actin”.

For “GDGV(D-I)TRIR (GDGV[dI]TRIR) [p907, reference compound]”, the “NO stimulated cGMP in platelets” value (human platelets [4]) was “partially inhibited”, the “NO-stimulated cGMP” value ([5]; CD36 null MASMC) was “partially inhibited” and the “NO-stimulated cGMP” value ([5]; CD47 null MASMC) was “did not significantly inhibit”. For the same compound, the “NO-stimulated cGMP” value ([5]; WT MASMC) was “slightly inhibited”, the “NO-stimulated cGMP” value ([5]; WT MASMC, listed as 907) was “inhibited NO-stimulated cGMP responses in WT” and the “NO-stimulated endothelial cell adhesion on type I collagen” value (HUVEC) was “inhibited NO-stimulated endothelial cell adhesion”. The “NO delay of thrombin-induced platelet aggregation” value (human platelets [6]) was “accelerated platelet aggregation in the presence of NO”.
